According to ChEMBL document CHEMBL5154672, “Design and synthesis of HDAC inhibitors to enhance the therapeutic effect of diffuse large B-cell lymphoma by improving metabolic stability and pharmacokinetic characteristics” (Eur J Med Chem, 2022):

What was measured:
TMD8 [1] = assay: Induction of apoptosis in human TMD8 cells assessed as late apoptotic cells at 0.5 uM incubated for 24 hrs by Annexin V-FITC/PI staining based flow cytometric analysis (reference value: 1.54%); format: functional
[2] = Metabolic stability in mouse liver microsomes assessed as half life measured for 75 to 130 mins by LC-MS/MS analysis; format: ADME, Microsome; settings: time 75-130 min
Histone deacetylase 3 = Histone deacetylase 3 (Homo sapiens, UniProt O15379); assay: Inhibition of HDAC3 (unknown origin) using RHKK(Ac)AMC fluorogenic peptide as substrate preincubated for 10 mins followed by substrate addition for 1 hr in presence of ATP by fluoroscence based assay
[3] = Metabolic stability in monkey liver microsomes assessed as half life measured for 75 to 130 mins by LC-MS/MS analysis; format: ADME, Macaca fascicularis, Microsome; settings: cynomolgus monkey, time 75-130 min
TMD8 [4] = assay: Induction of apoptosis in human TMD8 cells assessed as viable cells at 1 uM incubated for 24 hrs by Annexin V-FITC/PI staining based flow cytometric analysis (reference value: 96.4%); format: functional; settings: read-out: Activity
SU-DHL-2 = assay: Antiproliferative activity against human SUDHL2 cells incubated for 72 hrs by luminescence assay; format: functional, cell-based; settings: SU-DHL-2, 72 h
[5] = AUC (0 to t) in CB.17 SCID mouse xenografted with human TMD8 cells at 50 mg/kg, po measured upto 24 hrs by LC-MS/MS analysis; format: ADME, organism-based; set-up: time < 24 hrs, dose 50 mg/kg, route po; settings: in vivo
TMD8 [6] = assay: Induction of apoptosis in human TMD8 cells assessed as necrotic cells at 2 uM incubated for 24 hrs by Annexin V-FITC/PI staining based flow cytometric analysis (reference value: 1.85%); format: functional
[7] = MRT (0 to t) in CB.17 SCID mouse xenografted with human TMD8 cells at 50 mg/kg, po measured upto 24 hrs by LC-MS/MS analysis; format: ADME, organism-based; settings: in vivo
A549 = assay: Antiproliferative activity against human A549 cells assessed as remaining cell activity at 2 uM incubated for 72 hrs by luminescence assay relative to control; format: functional
[8] = MRT in ICR mouse at 25 mg/kg, po measured upto 24 hrs by LC-MS/MS analysis; format: ADME, organism-based; settings: in vivo
TMD8 [9] = assay: Induction of apoptosis in human TMD8 cells assessed as early apoptotic cells at 2 uM incubated for 24 hrs by Annexin V-FITC/PI staining based flow cytometric analysis (reference value: 0.24%); format: functional
TMD8 [10] = assay: Induction of apoptosis in human TMD8 cells assessed as early apoptotic cells at 1 uM incubated for 24 hrs by Annexin V-FITC/PI staining based flow cytometric analysis (reference value: 0.24%); format: functional
[11] = Metabolic stability in human liver microsomes assessed as half life measured for 75 to 130 mins by LC-MS/MS analysis; format: ADME, Microsome; settings: liver microsomes, time 75-130 min
TMD8 [12] = assay: Induction of apoptosis in human TMD8 cells assessed as viable cells at 4 uM incubated for 24 hrs by Annexin V-FITC/PI staining based flow cytometric analysis (reference value: 96.4%); format: functional; settings: read-out: Activity
[13] = Metabolic stability in dog liver microsomes assessed as half life measured for 75 to 130 mins by LC-MS/MS analysis; format: ADME, Canis lupus familiaris, Microsome; settings: time 75-130 min
MDA-MB-231 = assay: Antiproliferative activity against human MDA-MB-231 cells assessed as remaining cell activity at 2 uM incubated for 72 hrs by luminescence assay relative to control; format: functional
CWR22R = assay: Antiproliferative activity against human 22Rv1 cells incubated for 72 hrs by luminescence assay; format: functional, cell-based; settings: 22Rv1, 72 h
RS4-11 = assay: Antiproliferative activity against human RS4-11 cells incubated for 72 hrs by luminescence assay; format: functional, cell-based; settings: RS4-11, 72 h
[14] = Metabolic stability in dog liver microsomes assessed as intrinsic clearance measured for 75 to 130 mins by LC-MS/MS analysis; format: ADME, Canis lupus familiaris, Microsome; settings: time 75-130 min, read-out: CLH
[15] = Metabolic stability in monkey liver microsomes assessed as intrinsic clearance measured for 75 to 130 mins by LC-MS/MS analysis; format: ADME, Macaca fascicularis, Microsome; settings: cynomolgus monkey, time 75-130 min, read-out: CLH
Histone deacetylase 1 = Histone deacetylase 1 (Homo sapiens, UniProt Q13547); assay: Inhibition of HDAC1 (unknown origin) using RHKK(Ac)AMC fluorogenic peptide as substrate preincubated for 10 mins followed by substrate addition for 1 hr in presence of ATP by fluoroscence based assay
[16] = Oral bioavailability in ICR mouse at 25 mg/kg measured upto 24 hrs by LC-MS/MS analysis; format: ADME, organism-based; settings: in vivo
[17] = AUC (0 to t) in CB.17 SCID mouse xenografted with human TMD8 cells at 25 mg/kg, po measured upto 24 hrs by LC-MS/MS analysis; format: ADME, organism-based; set-up: dose 25 mg/kg, time < 24 hrs, route po; settings: in vivo
[18] = Metabolic stability in rat liver microsomes assessed as half life measured for 75 to 130 mins by LC-MS/MS analysis; format: ADME, Microsome; settings: time 75-130 min
TMD8 [19] = assay: Induction of apoptosis in human TMD8 cells assessed as late apoptotic cells at 2 uM incubated for 24 hrs by Annexin V-FITC/PI staining based flow cytometric analysis (reference value: 1.54%); format: functional
HCT-116 = assay: Antiproliferative activity against human HCT-116 cells assessed as remaining cell activity at 2 uM incubated for 72 hrs by luminescence assay relative to control; format: functional
[20] = AUC (0 to infinity) in ICR mouse at 25 mg/kg, po measured upto 24 hrs by LC-MS/MS analysis; format: ADME, organism-based; set-up: time < 24 hrs, dose 25 mg/kg, route po; settings: in vivo
[21] = MRT (0 to t) in CB.17 SCID mouse xenografted with human TMD8 cells at 25 mg/kg, po measured upto 24 hrs by LC-MS/MS analysis; format: ADME, organism-based; settings: in vivo
TMD8 [22] = assay: Induction of apoptosis in human TMD8 cells assessed as viable cells at 2 uM incubated for 24 hrs by Annexin V-FITC/PI staining based flow cytometric analysis (reference value: 96.4%); format: functional; settings: read-out: Activity
[23] = AUC (0 to infinity) in ICR mouse at 2 mg/kg, iv measured upto 24 hrs by LC-MS/MS analysis; format: ADME, organism-based; set-up: time < 24 hrs, dose 2 mg/kg, route iv; settings: in vivo
SK-OV-3 = assay: Antiproliferative activity against human SK-OV-3 cells incubated for 72 hrs by luminescence assay; format: functional, cell-based; settings: SK-OV-3, 72 h
NCI-H441 = assay: Antiproliferative activity against human NCI-H441 cells incubated for 72 hrs by luminescence assay; format: functional, cell-based; settings: NCI-H441, 72 h
[24] = MRT (0 to t) in CB.17 SCID mouse xenografted with human TMD8 cells at 100 mg/kg, po measured upto 24 hrs by LC-MS/MS analysis; format: ADME, organism-based; settings: in vivo

Sequence of Histone deacetylase 3 (O15379 whole entry): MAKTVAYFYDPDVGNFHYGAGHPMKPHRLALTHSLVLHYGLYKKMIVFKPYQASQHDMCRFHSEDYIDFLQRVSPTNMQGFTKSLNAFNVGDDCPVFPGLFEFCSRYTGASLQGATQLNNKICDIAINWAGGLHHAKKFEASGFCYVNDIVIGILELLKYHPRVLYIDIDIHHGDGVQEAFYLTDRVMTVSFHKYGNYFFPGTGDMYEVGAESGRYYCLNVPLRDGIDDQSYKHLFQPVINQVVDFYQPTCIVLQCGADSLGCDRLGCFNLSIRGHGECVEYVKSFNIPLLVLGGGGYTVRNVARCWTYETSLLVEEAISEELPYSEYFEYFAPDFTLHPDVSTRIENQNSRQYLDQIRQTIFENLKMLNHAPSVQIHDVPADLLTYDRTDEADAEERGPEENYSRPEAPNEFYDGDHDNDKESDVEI
Sequence of Histone deacetylase 1 (Q13547 whole entry): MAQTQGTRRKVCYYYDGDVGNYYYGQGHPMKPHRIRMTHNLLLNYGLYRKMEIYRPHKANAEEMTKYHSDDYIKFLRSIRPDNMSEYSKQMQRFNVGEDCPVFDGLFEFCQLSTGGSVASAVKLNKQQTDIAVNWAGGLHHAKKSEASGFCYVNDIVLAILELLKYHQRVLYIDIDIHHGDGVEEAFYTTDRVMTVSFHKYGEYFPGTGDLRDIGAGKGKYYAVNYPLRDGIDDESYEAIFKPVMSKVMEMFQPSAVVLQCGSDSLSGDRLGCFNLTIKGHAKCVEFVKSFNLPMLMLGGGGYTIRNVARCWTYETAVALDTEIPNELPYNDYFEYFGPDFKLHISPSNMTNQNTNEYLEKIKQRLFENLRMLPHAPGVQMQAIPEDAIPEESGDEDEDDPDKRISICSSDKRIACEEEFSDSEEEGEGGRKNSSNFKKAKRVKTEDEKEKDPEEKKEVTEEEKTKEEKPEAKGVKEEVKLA

Compound: Nc1ccccc1NC(=O)c1ccc(CN2CCC/C(=C\c3ccccn3)C2=O)cc1
- Activity (TMD8 [1]): 1.59%
- half-life [2]: 2.88 h
- IC50 (Histone deacetylase 3): 443 nM
- half-life [3]: 1.63 h
- viability at 1 µM (TMD8 [4]): 92.2%
- IC50 (SU-DHL-2): 510 nM
- AUC(0-t) at 24 h [5]: 9710 ng·h/mL
- Activity (TMD8 [6]): 6.52%
- MRT last at 24 h [7]: 0.812 h
- Activity (A549): 48.53%
- MRT [8]: 2.6 h
- Activity (TMD8 [9]): 10.3%
- Activity (TMD8 [10]): 1.03%
- half-life [11]: 13.3 h
- viability at 4 µM (TMD8 [12]): 57.4%
- half-life [13]: 17.9 h
- Activity (MDA-MB-231): 64.94%
- IC50 (CWR22R): 1140 nM
- IC50 (RS4-11): 470 nM
- microsomal CLint [14]: 1.32 µL/min/mg
- microsomal CLint [15]: 14.1 µL/min/mg
- IC50 (Histone deacetylase 1): 84.9 nM
- bioavailability [16]: 39.9%
- AUC(0-t) at 24 h [17]: 1220 ng·h/mL
- half-life [18]: 1.75 h
- Activity (TMD8 [19]): 7.94%
- Activity (HCT-116): 44.01%
- AUC(0-inf) [20]: 5180 ng·h/mL
- MRT last at 24 h [21]: 0.75 h
- viability at 2 µM (TMD8 [22]): 75.3%
- AUC(0-inf) [23]: 1040 ng·h/mL
- IC50 (SK-OV-3): 3170 nM
- IC50 (NCI-H441): 2620 nM
- MRT last at 24 h [24]: 1.43 h
